In patent publication US8945359B2, “Flavin-binding glucose dehydrogenase” (Ikeda Food Research Co., Ltd., priority 2011, dated 2015):

Experiments:
[1] = test system: Sclerotinia sclerotiorum NBRC103652 flavin-binding glucose dehydrogenase ScGLD (C), purified, wild type; experiment: Km value to D-glucose (Hanes-Woolf plot), ScGLD; assay type: biochemical; details: D-glucose varied, DCIP/1-m-PMS, pH 6.0, 37° C.
Description: After the column was washed with the buffer solution C2, a protein was eluted with linear gradient of a buffer solution D3 (500 mM potassium phosphate buffer solution, pH 7.0) in the buffer solution C2.

[2] = test system: Ciborinia camelliae NBRC103663 flavin-binding glucose dehydrogenase CiGLD (F), purified from A. oryzae NS4 with CiGLD-Atsig modified gene, SEQ ID NO: …; details: read-out: Km value, D-glucose varied, Hanes-Woolf plot, DCIP/1-m-PMS, pH 6.0, 37° C.
Description: (§1) Each solution was mixed according to the following procedures to measure the absorbance, thereby examining GLD activity.
(§2) Then, 0.05 mL of an enzyme sample was added to the mixture to start a reaction. The amount (ΔA600) of reduction in light absorbance per minute at 600 nm along with the progress of the enzymatic reaction was measured for 5 minutes from the start of the reaction to calculate GLD activity from the straight line part according to the equation 1. At this time, in the measurement of GLD activity, the amount of an enzyme reducing 1 μmol of DCIP at 37° C. and a pH of 6.0 for one minute was defined as 1 U.
(§3) In the above formula, 3.0 represents the amount (mL) of reaction reagent+oxygen solution, 10.8 represents the molar absorption coefficient (mM^−1 cm^−1) of DCIP at a pH of 6.0, 1.0 represents the optical path length (cm) of a cell, 0.05 represents the amount (mL) of the oxygen solution, ΔA600 blank represents a reduction in the amount of light absorbance per minute at 600 nm when the solution used to dilute the enzyme is added in place of the enzyme solution to start a reaction, and df represents a dilution ratio.
Among the eluted protein, an active fraction was concentrated and desalted to obtain a purified enzyme of GLD derived from the genus Ciborinia substituted with water.

[3] = test system: Botrytis fabae NBRC7171 flavin-binding glucose dehydrogenase BoGLD (D), purified, wild type; details: read-out: Km value, D-glucose varied, Hanes-Woolf plot, DCIP/1-m-PMS, pH 6.0, 37° C.
Excerpt: The transmitted active fraction was combined with the active fraction eluted after adsorbed and these fractions were concentrated and dialyzed against the buffer solution C3.

[4] = test system: Ovulinia azaleae NBRC6610 flavin-binding glucose dehydrogenase OvGLD (B), purified, wild type, SEQ ID NO: 6 (without signal sequence SEQ ID NO: 14); details: read-out: Km value, D-glucose varied, Hanes-Woolf plot, DCIP/1-m-PMS, pH 6.0, 37° C.
Description: as §1, §2, §3

## OC[C@H]1OC(O)[C@H](O)[C@@H](O)[C@@H]1O (stereo partly drawn) [D-glucose]
[1]
  Km: 16.7 mM
[2]
  Km: 5.44 mM
[3]
  Km: 35 mM
[4]
  Km: 22.8 mM
